# Measured values: US20150010639A1, “PHAR[…] DIETARY COMPOSITIONS BASED ON SHORT-CHAIN FATTY ACIDS AND COMPLEX SUGARS, FOR INTESTINAL DISORDERS” (COSMO TECHNOLOGIES LTD., priority 2004, published 2015)
# Test system: inflammatory bowel disease (IBD), symptom of diarrhoea
# Experiment: clinical study in patients with inflammatory bowel disease (IBD): symptom of diarrhoea on subjective 5-point scale
# Type: in vivo, adult patients
# Conditions: n = 6 IBD patients; for Diarrhoea % improvement relative to the base time / Diarrhoea mean intensity, final: after 4 weeks of daily oral treatment, 250 mg of each active; for Diarrhoea mean intensity, final / Diarrhoea mean intensity, base: scale 0 to 4; for Diarrhoea mean intensity, base: base time before treatment
# Protocol: The clinical study described below was performed with the tablets thus produced.
# The study was performed on 18 adult patients of both sexes, divided into three homogeneous groups each of 6 patients, who were suffering from inflammatory bowel disease (IBD) and were treated as follows:
# Group 1: 250 mg butyric acid
# Group 3: 250 mg butyric acid+250 mg inulin
# The active ingredients were transported in tablets which were indistinguishable in shape, size, weight and colour.
# The treatments were administered orally daily before the main meal for a period of 4 weeks.
# Before the start of the treatment (base time) and then upon completion of the 4 weeks of treatment, each patient was assessed for the presence of the symptom of diarrhoea.
# This symptom was quantified, according to its intensity, on a subjective 5-point scale graduated from 0 (absence of indisposition) to 4 (indisposition of considerable gravity). The mean intensity at the base time and at the end of the period of treatment and the percentage of improvement relative to the base time were calculated for this symptom.
Compound,Diarrhoea % improvement relative to the base time [%],"Diarrhoea mean intensity, final","Diarrhoea mean intensity, base"
CCCC(=O)O [butyric acid],44,1.5,2.7
inulin,27,2.1,2.9
